One assay deals with M. gordonae NTM 0274. In words: MIC of CF NTM clinical isolates. Type of assay: cell-based. As to conditions: for CLSI clinical breakpoint category: NTM 0274; for MIC: Mycobacterium gordonae, NTM0274, M. gordonae NTM 0274, read-out: MIC.
The subject of assay [1] is M. avium complex NTM 0260. In words: MIC of CF NTM clinical isolates. Type of assay: cell-based. Conditions: for CLSI clinical breakpoint category: NTM 0260; for MIC: Mycobacterium avium, M. avium complex NTM 0260, read-out: MIC.
For a further assay, the system named is MABSC biofilm. In words: 2D MBEC checkerboard assay, antibiotic potentiation in biofilm. In kind it is cell-based, Mycobacterium abscessus complex. Conditions: for Fold Change: MBEC alone vs MBEC with PAAG 128 μg/mL; for MBEC: antibiotic alone; for MBEC with PAAG: antibiotic with PAAG at half of its MBEC (128 μg/mL). As to the method:
(§1) PAAG synergy with conventional antibiotics was determined by 2D checkerboard analysis. PAAG's antimicrobial activity and antibiotic potentiation in a biofilm were determined by minimum biofilm eradication concentration (MBEC) and 2D MBEC checkerboard assays to determine antibiotic potentiation with PAAG within a biofilm.

For assay [2], the system named is M. abscessus subsp. bolletii NTM 0003. The assay is described as follows: MIC of CF NTM clinical isolates. As to conditions: for CLSI clinical breakpoint category: NTM 0003; for MIC: Mycobacteroides abscessus, M. abscessus subsp. bolletii NTM 0003, read-out: MIC. In kind it is cell-based.
For assay [3], the system named is M. abscessus subsp. abscessus NTM 0082. In words: MIC of CF NTM clinical isolates. In kind it is cell-based. As to conditions: for CLSI clinical breakpoint category: NTM 0082; for MIC: Mycobacteroides abscessus, M. abscessus subsp. abscessus NTM 0082, read-out: MIC.
Assay [4] deals with M. avium complex NTM 0813. The assay is described as follows: MIC of CF NTM clinical isolates. Conditions: for CLSI clinical breakpoint category: NTM 0813; for MIC: Mycobacterium avium, M. avium complex NTM 0813, read-out: MIC. In kind it is cell-based.
The test system of assay [5] is M. abscessus subsp. abscessus NTM 0079. The assay is described as follows: MIC of CF NTM clinical isolates. In kind it is cell-based. As to conditions: for CLSI clinical breakpoint category: NTM 0079; for MIC: Mycobacteroides abscessus, M. abscessus subsp. abscessus NTM 0079, read-out: MIC.
The next assay concerns MABSC NTM 0082. The assay is described as follows: 2D checkerboard analysis, antibiotic MIC with PAAG. As to conditions: for Fold Change: MIC alone vs MIC with PAAG 128 μg/mL; for MIC: Mycobacteroides abscessus. In kind it is cell-based, Mycobacterium abscessus complex. As to the method: as §1
Another assay concerns MAC NTM 0260. In words: 2D checkerboard analysis, antibiotic MIC with PAAG. Type of assay: cell-based, Mycobacterium avium complex. Conditions: for Fold Change: MIC alone vs MIC with PAAG 8 μg/mL; for MIC: Mycobacterium avium. The method, then:
as §1

Another assay has as its system MAC biofilm. In words: 2D MBEC checkerboard assay, antibiotic potentiation in biofilm. In kind it is cell-based, Mycobacterium avium complex. As to conditions: for Fold Change: MBEC alone vs MBEC with PAAG 8 μg/mL; for MBEC: antibiotic alone; for MBEC with PAAG: antibiotic with PAAG at half of its MBEC (8 μg/mL). As to the method:
as §1
In addition, PAAG potentiates antibiotics against NTM in biofilms as measured with minimum biofilm eradication concentration (MBEC) (Table 3).

Where [6] appears, read: antibiotic alone, read-out: MIC.
[7] abbreviates: antibiotic with PAAG at half of its MIC (128 μg/mL), read-out: MIC with PAAG.
The mark [8] stands for this setting: antibiotic alone, MAC NTM 0260, read-out: MIC.

The structures appear in SMILES notation. Like-named read-outs stand apart in the source and are kept apart here.

The text below walks through data of patent publication US20260151425A1, “COMPOSITIONS AND METHODS OF USE THEREOF” (SYNEDGEN, INC., priority 2020, published 2026).

By MIC is commonly meant the lowest concentration that inhibits growth of the organism. Consider `NCC[C@H](O)C(=O)N[C@@H]1C[C@H](N)[C@@H](O[C@H]2O[C@H](CN)[C@@H](O)[C@H](O)[C@H]2O)[C@H](O)[C@H]1O[C@H]1O[C@H](CO)[C@@H](O)[C@H](N)[C@H]1O` [Amikacin], for which the “CLSI clinical breakpoint category” value in the assay on M. gordonae NTM 0274 (Amikacin breakpoints) is “(S) (≤16 μg/mL (S))”; in assay [1] (Amikacin breakpoints), “(S) (≤16 μg/mL (S))”; in [2] (Amikacin breakpoints) it was “(S) (≤16 μg/mL (S))”; in assay [3] (Amikacin breakpoints) it was “(R) (≥64 μg/mL (R) for Amikacin)”; in assay [4] (Amikacin breakpoints) it was “(S) (≤16 μg/mL (S))”; in assay [5] (Amikacin breakpoints) it was “(R) (≥64 μg/mL (R) for Amikacin)”. Moreover, the MIC with M. gordonae NTM 0274 was less than 0.0625 µg/mL; in assay [1], 2 µg/mL; in assay [2], 4 µg/mL; in [3], 8 µg/mL; in assay [4], 2 µg/mL; in [5] it was 8 µg/mL. Also, the figures for the minimum inhibitory concentration (MIC) in the assay with MABSC NTM 0082 (setting [6]) and in the assay on MABSC NTM 0082 (setting [7]) were 32 µg/mL and 0.06 µg/mL, respectively. The figures for the “Fold Change” value in the assay with MABSC biofilm and with MABSC NTM 0082 were greater than 512 and 533, respectively. In the assay on MABSC biofilm, the MBEC was greater than 1024 µg/mL. In the assay on MABSC biofilm, the “MBEC with PAAG” value is 2 µg/mL.

As to `O=C(O)c1cn(C2CC2)c2cc(N3CCNCC3)c(F)cc2c1=O` [Ciprofloxacin], the MBEC in the assay on MABSC biofilm is greater than 1024 µg/mL.

With `CC[C@@H](CO)NCCN[C@@H](CC)CO` [Ethambutol], the “CLSI clinical breakpoint category” value (with M. gordonae NTM 0274 (Ethambutol breakpoints); in assay [1] (Ethambutol breakpoints); in assay [2] (Ethambutol breakpoints); in assay [3] (Ethambutol breakpoints); in assay [4] (Ethambutol breakpoints); in [5] (Ethambutol breakpoints)) was “R (≥2 μg/mL (R) for Ethambutol)” in each case. Also, the MIC worked out at 2 µg/mL in the assay on M. gordonae NTM 0274; 2 µg/mL in assay [1]; 8 µg/mL in [2]; 32 µg/mL in assay [3]; 2 µg/mL in the assay with MAC NTM 0260 (setting [8]); 1 µg/mL with MAC NTM 0260 (read-out: MIC with PAAG). Moreover, the MIC in [4] was determined as 2 µg/mL; in assay [5] it was 32 µg/mL; with MABSC NTM 0082 (setting [6]) it was 32 µg/mL; with MABSC NTM 0082 (setting [7]) it was 0.25 µg/mL. For the same compound, the “Fold Change” value is given as greater than 512 with MABSC biofilm, 2 in the assay on MAC NTM 0260 (MAC NTM 0260), greater than 32 with MAC biofilm and 128 in the assay with MABSC NTM 0082. Moreover, the MBEC in the assay on MABSC biofilm was greater than 1024 µg/mL; with MAC biofilm, greater than 8 µg/mL. The “MBEC with PAAG” value with MABSC biofilm was 2 µg/mL; in the assay with MAC biofilm it was less than 0.25 µg/mL.

Turning to `CC[C@H]1OC(=O)[C@H](C)[C@@H](O[C@H]2C[C@@](C)(OC)[C@@H](O)[C@H](C)O2)[C@H](C)[C@@H](O[C@@H]2O[C@H](C)C[C@H](N(C)C)[C@H]2O)[C@](C)(O)C[C@@H](C)CN(C)[C@H](C)[C@@H](O)[C@]1(C)O` [Azithromycin], the “CLSI clinical breakpoint category” value is recorded as “(I) (4 μg/mL (I))” with M. gordonae NTM 0274 (Azithromycin breakpoints); “(I) (4 μg/mL (I))” in assay [1] (Azithromycin breakpoints); “(R) (≥8 μg/mL (R))” in assay [2] (Azithromycin breakpoints); “(R) (≥8 μg/mL (R))” in assay [3] (Azithromycin breakpoints); “(I) (4 μg/mL (I))” in [4] (Azithromycin breakpoints); “(R) (≥8 μg/mL (R))” in assay [5] (Azithromycin breakpoints). The MIC is 2 µg/mL in the assay on M. gordonae NTM 0274; 2 µg/mL in [1]; 32 µg/mL in assay [2]; 32 µg/mL in assay [3]; 2 µg/mL in the assay with MAC NTM 0260 (setting [8]); 0.5 µg/mL with MAC NTM 0260 (read-out: MIC with PAAG). For the same compound, the results for the MIC in assay [4] and in assay [5] were 2 µg/mL and 32 µg/mL, respectively. Besides, the entries for the “Fold Change” value in the assay with MAC NTM 0260 (MAC NTM 0260) and in the assay on MAC biofilm were 4 and 8, respectively. In addition, in the assay with MAC biofilm, the MBEC was 8 µg/mL. In addition, in the assay with MAC biofilm, the “MBEC with PAAG” value is 1 µg/mL.
